Source: patent publication US20230114728A1 (Venatorx Pharmaceuticals, Inc., priority 2019, published 2023)
In brackets after ≈: the same amount, converted by molar mass.

Legend:
[1] = test system: P. aeruginosa (ΔmexAB-oprM); assay: Broth microdilution MIC in CAMHB; type: cell-based; settings: Pseudomonas aeruginosa, read-out: Minimum Inhibitory Concentration, P. aeruginosa ΔmexAB-OprM
Summary of the method: (§1)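 Per CLSI broth microdilution, colonies were grown 3-5 h at 37° C in cation-adjusted Mueller Hinton broth, then diluted to a starting inoculum of 2-8×10^5 CFU/mL against 2-fold serial compound dilutions. Plates were incubated 16-20 h at 37° C, and MIC was read visually as the lowest concentration with no growth.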

E. coli ATCC 25922 = assay: Broth microdilution MIC in CAMHB; type: cell-based; settings: Escherichia coli, ATCC25922; E. coli ATCC 25922; MHB; read-out: Minimum Inhibitory Concentration, E. coli 25922
Summary of the method: as §1

E. coli AG100 = assay: Broth microdilution MIC in CAMHB; type: cell-based; settings: Escherichia coli; E. coli AG100 (wild-type parent); MHB; read-out: Minimum Inhibitory Concentration, E. coli AG100
Summary of the method: as §1

A. baumannii ATCC 19606 = assay: Broth microdilution MIC in CAMHB; type: cell-based; settings: Acinetobacter baumannii, ATCC19606; MHB; read-out: Minimum Inhibitory Concentration, A. baumannii ATCC 19606
Summary of the method: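 CLSI broth microdilution in CAMHB: 2-fold compound dilutions inoculated at 2-8×10^5 CFU/mL from 3-5 h log-phase cultures. Incubated at 37 °C for 16-20 h (Enterobacteriaceae, Pseudomonas); MIC read visually as lowest concentration without growth. Strains include hyper-permeable and efflux-deficient mutants.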

[2] = test system: K. pneumoniae 848844 producing SHV-11 and KPC-2; assay: Broth microdilution MIC in CAMHB; type: cell-based; settings: Klebsiella pneumoniae, read-out: Minimum Inhibitory Concentration, K. pneumoniae 848844
Summary of the method: as §1

E. coli D22 = assay: Broth microdilution MIC in CAMHB; type: cell-based; settings: Escherichia coli; E. coli D22 (hyper-permeable); MHB; read-out: Minimum Inhibitory Concentration, E. coli D22
Summary of the method: as §1

[3] = test system: K. pneumoniae UMM producing SHV-5 and KPC-2; assay: Broth microdilution MIC in CAMHB; type: cell-based; settings: Klebsiella pneumoniae, read-out: Minimum Inhibitory Concentration, K. pneumoniae UMM
Summary of the method: as §1

E. coli 901C = assay: Broth microdilution MIC in CAMHB; type: cell-based; settings: Escherichia coli; E. coli 901C (hyper-permeable); MHB; read-out: Minimum Inhibitory Concentration, E. coli 901C
Summary of the method: as §1

E. coli K12 PBP3 = target: T1, E. coli K12 PBP3 (Escherichia coli, UniProt P0AD68); assay: biochemical; type: binding
T1 construct: made in house
T1 sequence (P0AD68 1-577): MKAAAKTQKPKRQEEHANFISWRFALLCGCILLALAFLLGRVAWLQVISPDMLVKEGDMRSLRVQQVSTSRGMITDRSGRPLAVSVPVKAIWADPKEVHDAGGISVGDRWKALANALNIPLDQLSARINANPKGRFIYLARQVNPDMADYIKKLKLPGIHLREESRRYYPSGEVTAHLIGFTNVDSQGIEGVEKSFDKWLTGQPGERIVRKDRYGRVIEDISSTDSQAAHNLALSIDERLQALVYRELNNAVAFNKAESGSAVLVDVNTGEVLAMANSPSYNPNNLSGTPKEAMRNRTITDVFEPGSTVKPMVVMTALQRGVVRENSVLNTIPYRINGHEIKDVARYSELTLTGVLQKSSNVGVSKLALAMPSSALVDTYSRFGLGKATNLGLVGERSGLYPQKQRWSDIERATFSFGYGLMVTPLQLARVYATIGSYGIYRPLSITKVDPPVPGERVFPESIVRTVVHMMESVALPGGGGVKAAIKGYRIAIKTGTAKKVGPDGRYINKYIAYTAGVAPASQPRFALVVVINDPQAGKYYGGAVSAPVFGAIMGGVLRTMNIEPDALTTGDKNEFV
Summary of the method: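 Fluorescence polarization (ex 490/em 520 nm) competition of inhibitors against Bocillin-FL at 0.1 μM, read up to 60 min. Final PBP levels: E. coli PBP3 1.5 μM; A. baumannii PBP2 2.5 μM, PBP3 0.2 μM in Tris pH 8.0/NaCl/glycerol/Tween 20; N. gonorrhoeae PBP2 […] in Hepes pH 8.0/NaCl/glycerol. EC50 = concentration halving PBP-bound Bocillin-FL.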

| Structure (SMILES) | EC50 (E. coli K12 PBP3) [µM] | also measured |
| --- | --- | --- |
| CCN1CCN(C(=O)NC(C(=O)N[C@H]2Cc3cccc(C(=O)O)c3OB2O)c2cccc(N)c2)C(=O)C1=O (stereo partly drawn) [Example 72, (3R)-3-(2-(3-aminophenyl)-2-(4-ethyl-2,3-dioxopiperazine-1-carboxamido)acetamido)-2-hydroxy-3,4-dihydro-2H-benzo[e][1,2]oxaborinine-8-carboxylic acid] | < 30 | MIC [1]: 8 to 16 µg/mL (≈ 15.3 to 30.6 µM); MIC (E. coli ATCC 25922): 32 to 64 µg/mL (≈ 61.1 to 122 µM); MIC (E. coli AG100): 32 to 64 µg/mL (≈ 61.1 to 122 µM); MIC (A. baumannii ATCC 19606): > 128 µg/mL; MIC [2]: > 128 µg/mL; MIC (E. coli D22): 2 to 4 µg/mL (≈ 3.82 to 7.64 µM); MIC [3]: 32 to 64 µg/mL (≈ 61.1 to 122 µM); MIC (E. coli 901C): < 0.25 µg/mL |
| NCCCN1CCN(C(=O)N[C@@H](C(=O)N[C@H]2Cc3ccc(F)c(C(=O)O)c3OB2O)c2c(F)cc(O)c(O)c2F)C(=O)C1=O (single isomer, unassigned) [Example 41] | < 30 |  |
| NCCN1CCN(C(=O)N[C@@H](C(=O)N[C@H]2Cc3ccc(F)c(C(=O)O)c3OB2O)c2c(F)cc(O)c(O)c2Cl)C(=O)C1=O (single isomer, unassigned) [Example 26] | < 30 |  |
| CCN1CCN(C(=O)NC(C(=O)N[C@H]2Cc3ccc(F)c(C(=O)O)c3OB2O)c2cc(F)c(O)c(O)c2Cl)C(=O)C1=O (stereo partly drawn) [Example 42, (3R)-3-(2-(2-chloro-5-fluoro-3,4-dihydroxyphenyl)-2-(4-ethyl-2,3-dioxopiperazine-1-carboxamido)acetamido)-7-fluoro-2-hydroxy-3,4-dihydro-2H-benzo[e][1,2]oxaborinine-8-carboxylic acid] | < 30 |  |
| NCCN1CCN(C(=O)N[C@@H](C(=O)N[C@H]2Cc3ccc(F)c(C(=O)O)c3OB2O)c2c(F)cc(O)c(O)c2F)C(=O)C1=O (single isomer, unassigned) [Example 40] | < 30 |  |
| NCCCN1CCN(C(=O)N[C@@H](C(=O)N[C@H]2Cc3ccc(F)c(C(=O)O)c3OB2O)c2c(F)cc(O)c(O)c2Cl)C(=O)C1=O (single isomer, unassigned) [Example 27] | < 30 |  |
| O=C(NC(C(=O)N[C@H]1Cc2ccc(F)c(C(=O)O)c2OB1O)c1ncc(O)cc1F)c1ccc(O)c(O)c1Cl (stereo partly drawn) [Example 8, (3R)-3-(2-(2-chloro-3,4-dihydroxybenzamido)-2-(3-fluoro-5-hydroxypyridin-2-yl)acetamido)-7-fluoro-2-hydroxy-3,4-dihydro-2H-benzo[e][1,2]oxaborinine-8-carboxylic acid] | 30 to 500 |  |
| O=C(O)c1c(F)ccc2c1OB(O)[C@@H](NC(=O)C(NC(=O)N1CCN(CCBr)C(=O)C1=O)c1c(F)cc(O)c(O)c1F)C2 (stereo partly drawn) [Example 38, (3R)-3-(2-(4-(2-bromoethyl)-2,3-dioxopiperazine-1-carboxamido)-2-(2,6-difluoro-3,4-dihydroxyphenyl)acetamido)-7-fluoro-2-hydroxy-3,4-dihydro-2H-benzo[e][1,2]oxaborinine-8-carboxylic acid] | < 30 |  |
| O=C(O)c1c(F)ccc2c1OB(O)[C@@H](NC(=O)[C@H](NC(=O)N1CCNC1=O)c1c(F)cc(O)c(O)c1Cl)C2 (single isomer, unassigned) [Example 34] | < 30 |  |
| CS(=O)(=O)N1CCN(C(=O)NC(C(=O)N[C@H]2Cc3ccc(F)c(C(=O)O)c3OB2O)c2ccc(O)c(O)c2Cl)C1=O (stereo partly drawn) [Example 23, (3R)-3-(2-(2-chloro-3,4-dihydroxyphenyl)-2-(3-(methylsulfonyl)-2-oxoimidazolidine-1-carboxamido)acetamido)-7-fluoro-2-hydroxy-3,4-dihydro-2H-benzo[e][1,2]oxaborinine-8-carboxylic acid] | < 30 |  |
| O=C(O)c1ccc(C(NC(=O)c2c(F)cc(O)c(O)c2Cl)C(=O)N[C@H]2Cc3ccc(F)c(C(=O)O)c3OB2O)cc1F (stereo partly drawn) [Example 71, (3R)-3-(2-(4-carboxy-3-fluorophenyl)-2-(2-chloro-6-fluoro-3,4-dihydroxybenzamido)acetamido)-7-fluoro-2-hydroxy-3,4-dihydro-2H-benzo[e][1,2]oxaborinine-8-carboxylic acid] | > 500 |  |
| NCCCN1CCN(C(=O)N[C@H](C(=O)N[C@H]2Cc3ccc(F)c(C(=O)O)c3OB2O)c2ccc(O)c(O)c2Cl)C(=O)C1=O (single isomer, unassigned) [Example 28] | 30 to 500 |  |
| O=C(NC(C(=O)N[C@H]1Cc2ccc(F)c(C(=O)O)c2OB1O)c1ncc(O)cc1F)c1ccnc(F)c1 (stereo partly drawn) [Example 53, (3R)-7-fluoro-3-(2-(3-fluoro-5-hydroxypyridin-2-yl)-2-(2-fluoroisonicotinamido)acetamido)-2-hydroxy-3,4-dihydro-2H-benzo[e][1,2]oxaborinine-8-carboxylic acid] | 30 to 500 | MIC (E. coli ATCC 25922): > 128 µg/mL; MIC (E. coli AG100): > 128 µg/mL; MIC [2]: > 128 µg/mL; MIC (E. coli D22): > 128 µg/mL; MIC [3]: > 128 µg/mL; MIC (E. coli 901C): 8 to 16 µg/mL (≈ 15.5 to 31 µM) |
| NC(C(=O)N[C@H]1Cc2ccc(F)c(C(=O)O)c2OB1O)c1c(F)cc(O)c(O)c1Cl (stereo partly drawn) [Example 25, (3R)-3-(2-amino-2-(2-chloro-6-fluoro-3,4-dihydroxyphenyl)acetamido)-7-fluoro-2-hydroxy-3,4-dihydro-2H-benzo[e][1,2]oxaborinine-8-carboxylic acid] | 30 to 500 |  |
| O=C(NC(C(=O)N[C@H]1Cc2ccc(F)c(C(=O)O)c2OB1O)c1ncc(O)cc1F)c1c(F)cc(O)c(O)c1Cl (stereo partly drawn) [Example 10, (3R)-3-(2-(2-chloro-6-fluoro-3,4-dihydroxybenzamido)-2-(3-fluoro-5-hydroxypyridin-2-yl)acetamido)-7-fluoro-2-hydroxy-3,4-dihydro-2H-benzo[e][1,2]oxaborinine-8-carboxylic acid] | 30 to 500 |  |
| O=C(Nc1ccc(O)c(O)c1Cl)NC(C(=O)N[C@H]1Cc2ccc(F)c(C(=O)O)c2OB1O)c1ncc(O)cc1F (stereo partly drawn) [Example 9, (3R)-3-(2-(3-(2-chloro-3,4-dihydroxyphenyl)ureido)-2-(3-fluoro-5-hydroxypyridin-2-yl)acetamido)-7-fluoro-2-hydroxy-3,4-dihydro-2H-benzo[e][1,2]oxaborinine-8-carboxylic acid] | 30 to 500 |  |
| O=C(O)c1ccc(C(NC(=O)N2CCN(CCNC(=O)c3ccc(O)c(O)c3Cl)C(=O)C2=O)C(=O)N[C@H]2Cc3ccc(F)c(C(=O)O)c3OB2O)cc1F (stereo partly drawn) [Example 11, (3R)-3-(2-(4-carboxy-3-fluorophenyl)-2-(4-(2-(2-chloro-3,4-dihydroxybenzamido)ethyl)-2,3-dioxopiperazine-1-carboxamido)acetamido)-7-fluoro-2-hydroxy-3,4-dihydro-2H-benzo[e][1,2]oxaborinine-8-carboxylic acid] | < 30 | MIC (E. coli ATCC 25922): 32 to 64 µg/mL (≈ 41.4 to 82.7 µM); MIC (E. coli AG100): 32 to 64 µg/mL (≈ 41.4 to 82.7 µM); MIC [2]: > 128 µg/mL; MIC (E. coli D22): 8 to 16 µg/mL (≈ 10.3 to 20.7 µM); MIC [3]: 2 to 4 µg/mL (≈ 2.58 to 5.17 µM); MIC (E. coli 901C): 0.5 to 1 µg/mL (≈ 0.646 to 1.29 µM) |
| O=C(O)c1c(F)ccc2c1OB(O)[C@@H](NC(=O)C(NC(=O)N1CCN(CCF)C(=O)C1=O)c1c(F)cc(O)c(O)c1F)C2 (stereo partly drawn) [Example 37, (3R)-3-(2-(2,6-difluoro-3,4-dihydroxyphenyl)-2-(4-(2-fluoroethyl)-2,3-dioxopiperazine-1-carboxamido)acetamido)-7-fluoro-2-hydroxy-3,4-dihydro-2H-benzo[e][1,2]oxaborinine-8-carboxylic acid] | < 30 |  |
| CC(C)(C)[C@@H](NC(=O)N1CCN(CCNC(=O)c2c(F)cc(O)c(O)c2Cl)C(=O)C1=O)C(=O)N[C@H]1Cc2ccc(F)c(C(=O)O)c2OB1O [Example 80, (R)-3-((R)-2-(4-(2-(2-chloro-6-fluoro-3,4-dihydroxybenzamido)ethyl)-2,3-dioxopiperazine-1-carboxamido)-3,3-dimethylbutanamido)-7-fluoro-2-hydroxy-3,4-dihydro-2H-benzo[e][1,2]oxaborinine-8-carboxylic acid] | < 30 |  |
| CCN1CCN(C(=O)NC(C(=O)N[C@H]2Cc3ccc(F)c(C(=O)O)c3OB2O)c2c(F)cc(O)c(O)c2F)C(=O)C1=O (stereo partly drawn) [Example 36, (3R)-3-(2-(2,6-difluoro-3,4-dihydroxyphenyl)-2-(4-ethyl-2,3-dioxopiperazine-1-carboxamido)acetamido)-7-fluoro-2-hydroxy-3,4-dihydro-2H-benzo[e][1,2]oxaborinine-8-carboxylic acid] | < 30 |  |
| CS(=O)(=O)N1CCN(C(=O)N[C@@H](C(=O)N[C@H]2Cc3ccc(F)c(C(=O)O)c3OB2O)c2c(F)cc(O)c(O)c2Cl)C1=O (single isomer, unassigned) [Example 35] | < 30 |  |
| O=C(O)c1ccc(C(NC(=O)c2ccc(O)c(O)c2Cl)C(=O)N[C@H]2Cc3cccc(C(=O)O)c3OB2O)cc1F (stereo partly drawn) [Example 7, (3R)-3-(2-(4-carboxy-3-fluorophenyl)-2-(2-chloro-3,4-dihydroxybenzamido)acetamido)-2-hydroxy-3,4-dihydro-2H-benzo[e][1,2]oxaborinine-8-carboxylic acid] | 30 to 500 |  |
